Measured values as given in patent publication US20060020110A1, “Synthetic peptides that bind to the hepatitis B virus core and E antigens” (priority 2000, published 2006).

Assays:
mAb specific for HSV gG2 = test: gG2 mAb binding to fusion peptide on solid phase
Description: (§1) ID. […] The specificity exchangers provided in SEQ. ID. […] Similarly, the specificity exchangers provided in SEQ. ID.

HBcAg [1] = molecular target: T1, HBcAg (Hepatitis B virus genotype D subtype ayw, UniProt P03146)
T1 sequence (P03146 whole entry): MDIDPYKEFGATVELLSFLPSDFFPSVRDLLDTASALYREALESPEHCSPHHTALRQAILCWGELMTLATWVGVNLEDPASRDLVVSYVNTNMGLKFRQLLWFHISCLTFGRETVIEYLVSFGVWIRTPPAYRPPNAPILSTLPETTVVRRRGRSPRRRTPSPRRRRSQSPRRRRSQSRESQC
Procedure: To evaluate the efficacy of the specificity exchangers described above, several binding assays using a mAb specific for HSV gG2 were conducted. In one assay, the various specificity exchangers were coated onto microtiterplates and were bound with the mAb specific for HSV gG2. […] ID. […] In another assay, HBcAg was coated onto microtiter plates, specificity exchanger was added (20 μg/well), and the binding of the mAb specific for HSV gG2 was determined. […] ID. […] In another binding assay, HBeAg was coated onto microtiter plates, specificity exchanger was added (20 μg/well), and the binding of the mAb specific for HSV gG2 was determined. […] ID. […] The characterization assays used to evaluate binding partners can also be used and/or modified for the analysis of the specificity exchangers.

HBeAg = molecular target: T2, HBeAg (Hepatitis B virus genotype D subtype ayw, UniProt P0C573); test: Redirection of HSV gG2 mAb to HBeAg on solid phase by fusion peptide in solution; format: binding
T2 construct: containing nine residues of pre-core and the 150 first residues of HBcAg; made in house
T2 sequence (P0C573 21-179): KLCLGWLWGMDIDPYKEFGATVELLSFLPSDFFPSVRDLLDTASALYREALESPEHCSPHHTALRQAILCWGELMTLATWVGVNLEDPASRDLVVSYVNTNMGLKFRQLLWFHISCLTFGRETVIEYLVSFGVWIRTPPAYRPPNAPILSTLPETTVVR
Description: as §1

HBcAg [2] = molecular target: T1, HBcAg; remark: listed apart in the source
Procedure: Accordingly, the assay was conducted by mixing the antibody to be tested with the appropriate antigen and allowing binding to occur overnight. Subsequently, rabbit complement, which is consumed if the antibody binds the antigen and the complement, was added. To determine the amount of residual complement in the mixture, sheep erythrocytes and an antibody to sheep erythrocytes was added.

serum HBeAg = molecular target: T3, serum HBeAg (Hepatitis B virus genotype D subtype ayw, UniProt P0C573); test: In vivo aggregation of serum HBeAg in HBeAg-transgenic mice; details: second group of experiments, i.p., final volume 0.5 ml
T3 construct: two HBeAg-transgenic mice; from tissue; host or cells: serum of HBeAg-transgenic mice (from Dr. David R Milich, The Scripps Research Institute)
T3 sequence (P0C573 20-183): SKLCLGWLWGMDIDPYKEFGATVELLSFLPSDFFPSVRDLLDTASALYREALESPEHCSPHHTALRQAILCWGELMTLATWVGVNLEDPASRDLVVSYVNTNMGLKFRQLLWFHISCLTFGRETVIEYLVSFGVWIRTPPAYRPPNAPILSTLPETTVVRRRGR
Procedure: By using an animal model of HBV infection, the therapeutic efficacy of a specificity exchanger directed to HBV was determined. In a first group of experiments, two HBeAg-transgenic mice (obtained from Dr. David R Milich, The Scripps Research Institute, La Jolla, Calif.) were injected ip. with 500 μl of undiluted hybridoma supernatants. The mice were then bled on day zero, two, six and nine post-injection. Sera were then tested for the change in serum HBeAg levels as determined by EIA (Sorin Biomedica, Saluggia, Italy).

[3] = tested on: B cell - mediated antigen presentation of HBcAg to experienced T cells; test: Inhibition of B cell-mediated antigen presentation of HBcAg to experienced T cells; format: cell-based, Balb/c mice
Procedure: A characterization assay that was used to evaluate the ability of a binding partner to modulate a host immune system response to HBV was conducted as follows. Groups of Balb/c mice were immunized subcutaneously with 20 μg HBcAg. Ten days later, draining lymph nodes were harvested and experienced CD4^+ T cells were purified using anti-CD4 coated magnetic beads (Dynal A S, Oslo, Norway) according to the manufacturers instructions. Naïve B cells were obtained from syngeneic mice, which had not been immunized. These B cells were used as antigen presenting cells in the characterization assay.
The ability of the different mAbs and peptides to block B cell uptake and antigen presentation of HBcAg-peptides to HBcAg-specific CD4+ T cells was then tested in vitro. The cell populations were mixed at a B/T cell ratio of 1:5 and added at a final concentration of approximately 2.5×10^5 to 5.0×10^5 cells per well in a 96 well microplate. Approximately, 20 μg of HBcAg was preincubated with the binding partner. The binding partner mixtures were then added to the cells and the plates were incubated for 26 to 96 hours at 37° C. The effect of the binding partners on T cell proliferation was determined by monitoring [^3H] thymidine incorporation.

[4] = fusion peptide in solution 20 μg/well
[5] = specificity exchanger 20 μg/well

VKLSCKASGYIFTSHRGGPEE [SEQ. ID. No. 74] was tested, and the “gG2 mAb binding to indicated antigen on solid phase: fusion peptide” value (mAb specific for HSV gG2; no addition of fusion peptide in solution) was 0.884, the “Binding of mAb specific for HSV gG2 to coated specificity exchanger (in words)” value (mAb specific for HSV gG2; specificity exchanger coated onto microtiterplates) was “appreciably bound the mAb” and the “gG2 mAb binding to indicated antigen on solid phase: HBcAg” value (HBcAg [1]; [4]) was 1.462. For the same sequence, the “Binding to immobilized HBcAg allowing binding of HSV gG2 mAb (in words)” value (HBcAg [1]; [5]) was “appreciably bound the immobilized HBcAg”, the “gG2 mAb binding to indicated antigen on solid phase: HBeAg” value (HBeAg; [4]) was 1.727 and the “Binding to immobilized HBeAg allowing binding of HSV gG2 mAb (in words)” value (HBeAg; [5]) was “appreciably bound the immobilized HBeAg”. For the same sequence, the “Complement binding of mAb-specificity exchanger-HBcAg complex (in words)” value (HBcAg [2]; HSV mAb and specificity exchanger at equimolar ratios) was “able to bind complement”, the “Ability to inhibit binding of mAb 4-2 to HBcAg (in words)” value (HBcAg [2]; complement binding assay) was “appreciably inhibited the binding of mAb 4-2 to HBcAg” and the “Ability to inhibit binding of mAb 9C8 to HBcAg (in words)” value (HBcAg [2]; complement binding assay) was “unable to compete away bound mAb 9C8”. For the same sequence, the “Fold change in serum HBeAg levels as determined by EIA in HBeAg-Tg mice” value (shortened to “Fold change in serum HBeAg levels”) (serum HBeAg; day 0 from injection) was 1, the “Fold change in serum HBeAg levels” value (serum HBeAg; day 1 from injection) was 1.5 and the “Fold change in serum HBeAg levels” value (serum HBeAg; day 3 from injection) was 2.3. The “Fold change in serum HBeAg levels” value (serum HBeAg; day 6 from injection) was 2.3, the “Fold change in serum HBeAg levels” value (serum HBeAg; day 9 from injection) was 3.3 and the “Inhibition of B cell mediated antigen presentation of HBcAg to specific CD4+ T cells (in words)” value [3] was “inhibited B cell mediated antigen presentation”. The “cpm ([3H] thymidine incorporation, T cell proliferation)” value ([3]; T + B cells, 20 μg HBcAg preincubated with inhibitor, positive control 573, background 110) was 345 cpm and the “% inhibition of APC” value ([3]; T + B cells, 20 μg HBcAg, calculated from cpm versus positive control and background proliferation) was 49%.
